Measured values reported in PubChem BioAssay (NCI).
Several values for one entry are separate records, joined by “and”; a condition that tells them apart may be missing. Equal entries are not always repeated.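 Dose response: 5 concentrations. Exposure: 48 h. Format: 96-well plates. Endpoint: linear interpolation; highest concentration if not reached. GI50 marks 50% less growth. TGI denotes the concentration required for complete inhibition of growth.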

Tests used:
Assay in all cases: inhibition of tumour cell growth, NCI panel, 48 h
[1] = test system: RXF 393 renal
[2] = test system: SR leukemia
[3] = test system: SF-295 CNS
[4] = test system: OVCAR-3 ovarian
[5] = test system: SK-MEL-2 melanoma
[6] = test system: NCI-H522 lung
[7] = test system: NCI-H23 lung
[8] = test system: SK-MEL-5 melanoma
[9] = test system: CAKI-1 renal
[10] = test system: BT-549 breast

Compound	TGI [1]	TGI [2]	TGI [3]	TGI [4]	TGI [5]	TGI [6]	TGI [7]	TGI [8]	GI50 [7]	GI50 [1]	GI50 [9]	TGI [9]	GI50 [2]	GI50 [8]	GI50 [3]	GI50 [5]	GI50 [6]	GI50 [4]	GI50 [10]	TGI [10]
NCCn1ccc(NC(c2ccccc2)(c2ccccc2)c2ccccc2)nc1=O	21.3 µM	46.2 µM	36.1 µM	52.6 µM	33.4 µM	32.8 µM														
COc1ccc2nc3ccccc3c(NCCCCCN(CCCl)CCCl)c2c1		0.0101 µM	1.21 µM	0.963 µM		0.017 µM	0.986 µM	0.433 µM												
COc1cc[c]([Sb]([Br])([CH]=C(C)C)([CH]=C(C)C)[CH]=C(C)C)cc1	59.1 µM	> 100 µM	87.2 µM		51.3 µM	9.23 µM	34.6 µM	9.92 µM	4.72 µM	8.8 µM	30.7 µM	> 100 µM	4.28 µM	3.03 µM	18.4 µM	5.79 µM	2.48 µM			
CC1(C(=O)NCCN(CCNC(=O)C2(C)CC3(C)CC(C)(C2)C(=O)NC3=O)CCNC(=O)C2(C)CC3(C)CC(C)(C2)C(=O)NC3=O)CC2(C)CC(C)(C1)C(=O)NC2=O (stereo not given)	> 100 µM	> 100 µM	> 100 µM	> 100 µM	> 100 µM		> 100 µM					> 100 µM								
O=C(N[C@@H]1C=CCC[C@@H]1c1ccccc1)OCc1ccccc1	35.9 µM	41.7 µM	45.6 µM	31.2 µM	32.4 µM	30.9 µM	51.3 µM	33.3 µM				45.1 µM								
O=[N+]([O-])c1cccc(/C=C/c2ccccn2)c1	> 100 µM	> 100 µM	> 100 µM	> 100 µM			> 100 µM	> 100 µM	30 µM	8.6 µM	34.5 µM	> 100 µM	51.6 µM	28.7 µM	35.6 µM			12.4 µM		
NC(=S)N/N=C1\C(=O)N(CCc2ccccc2)C(=O)C1C(=O)NCCc1ccccc1 (stereo not given)	> 100 µM		> 100 µM	> 100 µM	> 100 µM	> 100 µM	> 100 µM	> 100 µM				> 100 µM								
COC1=C(C)C(=O)C2=C(C1=O)C(CO)N1C(C#N)C3CC4C(C1C2N1CCOC41)N3C (stereo not given)			0.845 µM and 0.678 µM and 1.11 µM	0.168 µM and 0.0383 µM and < 0.02 µM	0.0451 µM and 0.038 µM and 0.0364 µM			0.214 µM and 0.0802 µM and 0.114 µM	0.00173 µM and < 0.0134 µM	0.00201 µM and 0.0178 µM			0.00159 µM and 0.00538 µM	0.00264 µM and 0.0262 µM	0.142 µM				0.00373 µM and 0.0232 µM and < 0.01 µM	0.00951 µM and 0.0873 µM and < 0.0111 µM
O=C(c1ccco1)c1ccccc1C(=O)c1ccco1	> 100 µM	> 100 µM	> 100 µM	> 100 µM	> 100 µM		> 100 µM	> 100 µM				> 100 µM								
CCCCCCCCCCCCOC1C(CNCC2OC3OC(C)(C)OC3C2NC(=O)Nc2ccc(C(F)(F)F)cc2)OC2OC(C)(C)OC21 (stereo not given)	8.99 µM		17.9 µM	13.3 µM	19.3 µM	9.21 µM	19 µM	15.1 µM	8.78 µM	3.37 µM	7.41 µM	15.1 µM		8.15 µM	9 µM	9.09 µM	3.96 µM	4.59 µM	7.44 µM	14.4 µM
Fc1c[c-]c(-c2ccccn2)c(F)c1.[CH3-].[Pt+2].c1ccc([PH+](c2ccccc2)c2ccccn2)cc1	2.76 µM	7.05 µM	62.5 µM	2.88 µM	5.86 µM	8.18 µM	3.64 µM	3 µM	1.57 µM	1.32 µM	1.23 µM	2.53 µM	0.786 µM	1.6 µM	4.91 µM	2.22 µM	1.94 µM	1.44 µM		
Cc1ccc(/C=N/NS(=O)(=O)c2ccccc2)cc1	> 100 µM	> 100 µM	> 100 µM	> 100 µM	> 100 µM		> 100 µM	> 100 µM				> 100 µM								
COc1ccc(N2CCN(CN3CCN(c4ccc(OC)cc4)C3)C2)cc1	> 100 µM		> 100 µM	> 100 µM	> 100 µM	> 100 µM	> 100 µM	> 100 µM	48 µM	> 100 µM	> 100 µM	> 100 µM		> 100 µM	> 100 µM	> 100 µM	> 100 µM	> 100 µM	79.7 µM	> 100 µM
COc1cc(-c2nc(-c3nnc(-c4ccc(F)c(Cl)c4)o3)c3ccccn23)cc(OC)c1OC	7 µM		> 100 µM	8.69 µM	5.59 µM	4.66 µM	> 100 µM	> 100 µM	4 µM	2.62 µM	5.46 µM	> 100 µM		3.03 µM	3.09 µM	2.27 µM	1.92 µM	2.76 µM	1.67 µM	4.46 µM
Cc1cccc(Cl)c1NC(N)=S			> 100 µM	78.6 µM			> 100 µM	> 100 µM				> 100 µM								
NC1=NN(c2ccccc2)C(=O)C1/C(=N\NC(=O)c1cc2ccccc2cc1O)C(=O)Nc1nc([N+](=O)[O-])cs1 (stereo not given)	7.27 µM	58.3 µM	> 100 µM	98.6 µM	> 86.6 µM	37.2 µM	56.3 µM	48.9 µM				99 µM								
CCCCNC(=O)OCC(COc1ccccc1OC)OC(=O)NCCCC (stereo not given)	> 100 µM		> 100 µM	> 100 µM	> 100 µM	> 100 µM	> 100 µM	> 100 µM				> 100 µM								
COc1cccc2c1C(=O)c1c(O)c3c(c(O)c1C2=O)C[C@@](O)(C(=O)CO)C[C@@H]3OC1CC(OC(C)=O)C(OC(C)=O)C(C)O1 (stereo not given in full)	3.72 µM		1.25 µM	4.57 µM	4.95 µM	3.36 µM	1.5 µM	1.67 µM	0.227 µM	1.41 µM	0.18 µM	1.44 µM		0.249 µM	0.234 µM	1.87 µM	0.578 µM	0.965 µM	0.386 µM	4.29 µM
